≈ marks a conversion by molar mass, not a printed value.
Legend:
[1] = tested on: Plasmodium falciparum; experiment: Antimalarial activity against asynchronic culture of Plasmodium falciparum NF54 assessed as parasite growth inhibition at 20 ug/mL after 48 hrs by ethidium bromide staining-based spectrofluorometric analysis relative to control; format: functional; conditions: NF54, 48 h, read-out: GI
[2] = Cytotoxicity against human U937 cells assessed as cell viability after 72 hrs by MTT assay; format: cell-based, U-937; conditions: read-out: LC50
[3] = tested on: Leishmania panamensis; experiment: Antileishmanial activity against amastigote stage of Leishmania panamensis MHOM/CO/87/UA140-EpiR-GFP infected in human U937 cells assessed as parasite growth inhibition at 20 ug/mL after 72 hrs by flow cytometric analysis relative to control; format: functional; conditions: MHOM/CO/87/UA140, U-937, 72 h, read-out: GI
[4] = tested on: Leishmania panamensis; experiment: Antileishmanial activity against amastigote stage of Leishmania panamensis MHOM/CO/87/UA140-EpiR-GFP infected in human U937 cells assessed as parasite growth inhibition after 72 hrs by flow cytometric analysis; format: functional, organism-based; conditions: MHOM/CO/87/UA140, U-937, 72 h
[5] = tested on: Trypanosoma cruzi; experiment: Antitrypanosomal activity against amastigote stage of Trypanosoma cruzi Tulahuen infected in human U937 cells assessed as parasite growth inhibition at 20 ug/mL after 72 hrs by beta-galactosidase reporter gene assay relative to control; format: functional; conditions: U-937, 72 h, read-out: GI
[6] = Hemolytic activity in human RBC after 48 hrs by spectrophotometric analysis; format: ADME, cell-based, Erythrocyte; conditions: human red blood cells (RBC), read-out: LC50
[7] = tested on: Plasmodium falciparum; experiment: Antimalarial activity against asynchronic culture of Plasmodium falciparum NF54 assessed as parasite growth inhibition after 48 hrs by ethidium bromide staining-based spectrofluorometric analysis; format: functional, organism-based; conditions: NF54, 48 h
[8] = tested on: Leishmania panamensis; experiment: Antileishmanial activity against amastigote stage of Leishmania panamensis MHOM/CO/87/UA140-EpiR-GFP infected in human U937 cells assessed as parasite growth inhibition at 5 ug/mL after 72 hrs by flow cytometric analysis relative to control; format: functional; conditions: MHOM/CO/87/UA140, U-937, 72 h, read-out: GI
[9] = tested on: Trypanosoma cruzi; experiment: Antitrypanosomal activity against amastigote stage of Trypanosoma cruzi Tulahuen infected in human U937 cells assessed as parasite growth inhibition at 1 ug/mL after 72 hrs by beta-galactosidase reporter gene assay relative to control; format: functional; conditions: U-937, 72 h, read-out: GI
[10] = tested on: Trypanosoma cruzi; experiment: Antitrypanosomal activity against amastigote stage of Trypanosoma cruzi Tulahuen infected in human U937 cells assessed as parasite growth inhibition after 72 hrs by beta-galactosidase reporter gene assay; format: functional, organism-based; conditions: U-937, 72 h

SMILES	inhibition of growth at 20 µg/mL [1] [%]	CC50 at 72 h [2] [µg/mL]	inhibition of growth at 20 µg/mL [3] [%]	EC50 [4] [µg/mL]	inhibition of growth at 20 µg/mL [5] [%]	HC50 at 48 h [6] [µg/mL]	IC50 [7] [µg/mL]	inhibition of growth at 5 µg/mL [8] [%]	inhibition of growth at 1 µg/mL [9] [%]	EC50 [10] [µg/mL]
COc1cc(C2CC(c3cc(OC)c(OC)c(OC)c3)=NN2C(C)=O)ccc1Oc1nc2c(c(=O)n(C)c(=O)n2C)n1C (configuration not stated)	46.3	> 200	87.6	12.6 (≈ 21.3 µM)	15.8	–	–	–	–	–
COc1ccc(C2=Nc3c(C)nn(-c4ccccc4)c3NC(c3ccc(Oc4nc5c(c(=O)n(C)c(=O)n5C)n4C)c(OC)c3)C2)cc1 (configuration not stated)	84.4	> 200	0	–	26.9	> 200	13.1 (≈ 20.3 µM)	–	–	–
COc1ccc(C2=NN(C(C)=O)C(c3ccc(Oc4nc5c(c(=O)n(C)c(=O)n5C)n4C)c(OC)c3)C2)cc1 (configuration not stated)	11.6	> 200	76.2	14.6 (≈ 27.4 µM)	0	–	–	–	–	–
COc1ccc(C(=O)/C=C/c2ccc(Oc3nc4c(c(=O)n(C)c(=O)n4C)n3C)c(OC)c2)cc1	0	> 200	82.6	14.2 (≈ 29.8 µM)	27.5	–	–	–	–	–
COc1cc(C2CC(c3ccc(F)cc3)=Nc3c(C)nn(-c4ccccc4)c3N2)ccc1Oc1nc2c(c(=O)n(C)c(=O)n2C)n1C (configuration not stated)	91.7	> 200	0	–	23.5	> 200	12.5 (≈ 19.7 µM)	–	–	–
COc1cc(C2CC(c3ccccc3)=NN2C(C)=O)ccc1Oc1nc2c(c(=O)n(C)c(=O)n2C)n1C (configuration not stated)	62.5	14.8 (≈ 29.5 µM)	–	–	–	> 200	18.4 (≈ 36.6 µM)	35.2	0	–
COc1cc(/C=C/C(=O)c2ccc(C)cc2)ccc1Oc1nc2c(c(=O)n(C)c(=O)n2C)n1C	54.3	27.5 (≈ 59.7 µM)	–	2.6 (≈ 5.65 µM)	–	> 200	21.4 (≈ 46.5 µM)	21.8	0	–
COc1cc(/C=C/C(=O)c2cc(OC)c(OC)c(OC)c2)ccc1Oc1nc2c(c(=O)n(C)c(=O)n2C)n1C	6.4	3.2 (≈ 5.96 µM)	–	2.6 (≈ 4.85 µM)	–	–	–	48.8	9.7	5.9 (≈ 11 µM)
COc1cc(C2CC(c3ccc(C)cc3)=NN2C(C)=O)ccc1Oc1nc2c(c(=O)n(C)c(=O)n2C)n1C (configuration not stated)	35.6	> 200	63.7	18.1 (≈ 35 µM)	30.6	–	–	–	–	–
O=C(Cn1ccnc1[N+](=O)[O-])NCc1ccccc1 [BENZNIDAZOLE]	–	180 (≈ 692 µM)	–	–	100	–	–	–	–	10.7 (≈ 41.1 µM)
COc1cc(C2CC(c3ccccc3)=NN2)ccc1Oc1nc2c(c(=O)n(C)c(=O)n2C)n1C (configuration not stated)	85.2	19.8 (≈ 43 µM)	–	–	–	> 200	13.7 (≈ 29.8 µM)	0	0	–
COc1cc(C2CC(c3ccc(Br)cc3)=NN2C(C)=O)ccc1Oc1nc2c(c(=O)n(C)c(=O)n2C)n1C (configuration not stated)	44.1	110 (≈ 189 µM)	82.8	14.3 (≈ 24.6 µM)	24.3	–	–	–	–	–
COc1cc(C2CC(c3ccc(C)cc3)=NN2)ccc1Oc1nc2c(c(=O)n(C)c(=O)n2C)n1C (configuration not stated)	46.1	53.2 (≈ 112 µM)	0	–	61.9	–	–	–	–	19.4 (≈ 40.9 µM)
COc1cc(C2CC(c3ccc(C)cc3)=Nc3c(C)nn(-c4ccccc4)c3N2)ccc1Oc1nc2c(c(=O)n(C)c(=O)n2C)n1C (configuration not stated)	93.5	> 200	0	–	37.7	> 200	12.3 (≈ 19.5 µM)	–	–	–
COc1cc(C2CC(c3ccccc3)=Nc3c(C)nn(-c4ccccc4)c3N2)ccc1Oc1nc2c(c(=O)n(C)c(=O)n2C)n1C (configuration not stated)	85.9	> 200	0	–	15.7	> 200	13.3 (≈ 21.6 µM)	–	–	–
COc1cc(C2CC(c3cc(OC)c(OC)c(OC)c3)=Nc3c(C)nn(-c4ccccc4)c3N2)ccc1Oc1nc2c(c(=O)n(C)c(=O)n2C)n1C (configuration not stated)	94.2	> 200	0	–	56.6	> 200	11.3 (≈ 16 µM)	–	–	20.3 (≈ 28.7 µM)
COc1cc(C2CC(c3ccc(Br)cc3)=NN2C=O)ccc1Oc1nc2c(c(=O)n(C)c(=O)n2C)n1C (configuration not stated)	46.9	> 200	70.4	16.1 (≈ 28.4 µM)	36.9	–	–	–	–	–
COc1cc(C2CC(c3ccc(Br)cc3)=NN2)ccc1Oc1nc2c(c(=O)n(C)c(=O)n2C)n1C (configuration not stated)	56.8	> 200	60	19.5 (≈ 36.2 µM)	0	> 200	20.8 (≈ 38.6 µM)	–	–	–
COc1cc(C2CC(c3cc(OC)c(OC)c(OC)c3)=NN2)ccc1Oc1nc2c(c(=O)n(C)c(=O)n2C)n1C (configuration not stated)	30.7	> 200	73	15.8 (≈ 28.7 µM)	0	–	–	–	–	–
COc1cc(C2CC(c3ccc(Cl)cc3)=Nc3c(C)nn(-c4ccccc4)c3N2)ccc1Oc1nc2c(c(=O)n(C)c(=O)n2C)n1C (configuration not stated)	80.3	> 200	0	–	0	> 200	14.1 (≈ 21.7 µM)	–	–	–
